Test results taken from article PMC12627933, “A First-In-Human Study of the SUMOylation Inhibitor Subasumstat in Patients with Advanced/Metastatic Solid Tumors or Relapsed/Refractory Hematologic Malignancies” (Cancer Research Communications, 2025).

Assay: Safety: treatment-emergent adverse events (NCI CTCAE v5.0; CRS per ASTCT), phase I/II study NCT03648372
Format: in vivo
Settings: Phase I (n = 84)
Description: This study comprised two parts: a phase I dose escalation and a phase II dose expansion (Fig. 1). In the dose-escalation phase, patients were enrolled to receive subasumstat intravenously as a 1-hour (±10 minutes) infusion on days 1, 4, 8, and 11 of a 21-day cycle (biweekly schedule). […] Dose escalation was based on cohort with an adaptive design using Bayesian logistic regression modeling with overdose control. The starting dose of subasumstat was based on Good Laboratory Practice animal toxicity studies and supported by the estimation of a minimum anticipated biologically effective level. A detailed description of dose-limiting toxicities (DLT) is presented in the Supplementary Methods.
The phase II dose-expansion portion enrolled patients to receive the recommended phase II dose (RP2D) determined in phase I, with each cohort assessed separately using an adaptive two-stage design for a single proportion (see Supplementary Methods). For stage 1, each cohort was analyzed when a prespecified number of patients were enrolled and had the potential to have at least one posttreatment scan [i.e., after the first disease assessment, 2 months from cycle 1 day 1 (C1D1)]. If the prespecified minimal response rate was not achieved in the first stage for a given cohort, that cohort would be closed to enrollment. […] The final analysis of the primary endpoints for each cohort would take place when all ongoing patients had the opportunity to complete the 6-month disease assessment. Across both phases, patients received subasumstat for up to 1 year or until confirmed disease progression, unacceptable toxicity, if any withdrawal criterion from the study was met, or if discontinuation of subasumstat occurred.
The occurrence of DLTs was assessed during cycle 1 (DLTs are described in the Supplementary Methods). Treatment-emergent adverse events (TEAE) were graded according to NCI Common Terminology Criteria for Adverse Events version 5.0, except for cytokine release syndrome (CRS), which was graded according to the American Society for Transplantation and Cellular Therapy Consensus Grading for CRS ([20]).
It was anticipated that approximately 70 DLT-evaluable patients would be enrolled for dose escalation. The safety analysis set included all patients who received at least one dose, even if incomplete, of subasumstat. […] The overall response rate (ORR) was defined as the proportion of patients who achieved complete response and partial response (PR) during the study. The disease control rate (DCR) was defined as the proportion of patients who achieved […] as per RECIST v1.1 for solid tumors or Lugano classification for lymphomas. […] Progression-free survival was summarized descriptively using the Kaplan–Meier method.

For `Cc1sc(C(=O)c2cncnc2N[C@@H]2C[C@H](COS(N)(=O)=O)[C@@H](O)C2)cc1[C@@H]1NCCc2ccc(Cl)cc21` [subasumstat], the “AESI (adverse event of special interest)” value was 9 (10.7) n (%), the “AESI related to subasumstat” value was 9 (10.7) n (%) and the “AESI: CRS” value was 9 (10.7) n (%). For the same compound, the “Grade ≥3 TEAE: Abdominal pain” value was 4 (4.8) n (%), the “Grade ≥3 TEAE: Acute kidney injury” value was 2 (2.4) n (%) and the “Grade ≥3 TEAE: Anemia” value was 9 (10.7) n (%). For the same compound, the “Grade ≥3 TEAE: Aspartate aminotransferase increased” value was 2 (2.4) n (%), the “Grade ≥3 TEAE: Blood bilirubin increased” value was 2 (2.4) n (%) and the “Grade ≥3 TEAE: Dyspnea” value was 4 (4.8) n (%). For the same compound, the “Grade ≥3 TEAE: Fatigue” value was 5 (6.0) n (%), the “Grade ≥3 TEAE: Hyperbilirubinemia” value was 0 n (%) and the “Grade ≥3 TEAE: Hypertension” value was 1 (1.2) n (%). For the same compound, the “Grade ≥3 TEAE: Hypokalemia” value was 7 (8.3) n (%), the “Grade ≥3 TEAE: Hypomagnesemia” value was 2 (2.4) n (%) and the “Grade ≥3 TEAE: Hypophosphatemia” value was 2 (2.4) n (%). For the same compound, the “Grade ≥3 TEAE: Lymphocyte count decreased” value was 5 (6.0) n (%), the “Grade ≥3 TEAE: Lymphopenia” value was 1 (1.2) n (%) and the “Grade ≥3 TEAE: Muscular weakness” value was 0 n (%). The “Grade ≥3 TEAE: Nausea” value was 2 (2.4) n (%), the “Grade ≥3 TEAE: Neutropenia” value was 0 n (%) and the “Grade ≥3 TEAE: Platelet count increased” value was 1 (1.2) n (%). The “Grade ≥3 TEAE: Pleural effusion” value was 2 (2.4) n (%), the “Grade ≥3 TEAE: Pneumonia” value was 1 (1.2) n (%) and the “Grade ≥3 TEAE: Pneumonitis” value was 2 (2.4) n (%). For the same compound, the “Grade ≥3 TEAE: Pyrexia” value was 2 (2.4) n (%), the “Grade ≥3 TEAE: Small intestinal obstruction” value was 4 (4.8) n (%) and the “Grade ≥3 TEAE: Thrombocytopenia” value was 1 (1.2) n (%). For the same compound, the “Grade ≥3 TEAE: Vomiting” value was 4 (4.8) n (%), the “Grade ≥3 TEAEs” value was 48 (57.1) n (%) and the “Grade ≥3 TEAEs related to subasumstat” value was 18 (21.4) n (%). The “Grade ≥3 subasumstat-related TEAE: Anemia” value was 1 (1.2) n (%), the “Grade ≥3 subasumstat-related TEAE: Aspartate aminotransferase increased” value was 2 (2.4) n (%) and the “Grade ≥3 subasumstat-related TEAE: Hypokalemia” value was 2 (2.4) n (%). The “Grade ≥3 subasumstat-related TEAE: Lymphocyte count decreased” value was 4 (4.8) n (%), the “Grade ≥3 subasumstat-related TEAE: Muscular weakness” value was 0 n (%) and the “Grade ≥3 subasumstat-related TEAE: Neutropenia” value was 0 n (%). For the same compound, the “Grade ≥3 subasumstat-related TEAE: Platelet count increased” value was 1 (1.2) n (%), the “Grade ≥3 subasumstat-related TEAE: Pneumonitis” value was 2 (2.4) n (%) and the “Grade ≥3 subasumstat-related TEAE: Thrombocytopenia” value was 1 (1.2) n (%). For the same compound, the On-study deaths was 10 (11.9) n (%), the “Patients with at least one grade ≥3 TEAE” value was 48 (57.1) n (%) and the “Patients with at least one grade ≥3 subasumstat-related TEAE” value was 18 (21.4) n (%). The Serious adverse events was 37 (44.0) n (%), the “Serious adverse events related to subasumstat” value was 7 (8.3) n (%) and the “Subasumstat-related TEAE: Anemia” value was 4 (4.8) n (%). The “Subasumstat-related TEAE: CRS” value was 9 (10.7) n (%), the “Subasumstat-related TEAE: Chills” value was 17 (20.2) n (%) and the “Subasumstat-related TEAE: Decreased appetite” value was 10 (11.9) n (%). For the same compound, the “Subasumstat-related TEAE: Diarrhea” value was 15 (17.9) n (%), the “Subasumstat-related TEAE: Dyspnea” value was 4 (4.8) n (%) and the “Subasumstat-related TEAE: Fatigue” value was 27 (32.1) n (%). The “Subasumstat-related TEAE: Headache” value was 21 (25.0) n (%), the “Subasumstat-related TEAE: Hypokalemia” value was 7 (8.3) n (%) and the “Subasumstat-related TEAE: IRR” value was 5 (6.0) n (%). The “Subasumstat-related TEAE: Myalgia” value was 6 (7.1) n (%), the “Subasumstat-related TEAE: Nausea” value was 29 (34.5) n (%) and the “Subasumstat-related TEAE: Pyrexia” value was 23 (27.4) n (%). For the same compound, the “Subasumstat-related TEAE: Vomiting” value was 13 (15.5) n (%), the “TEAE: Abdominal distension” value was 11 (13.1) n (%) and the “TEAE: Abdominal pain” value was 17 (20.2) n (%). For the same compound, the “TEAE: Anemia” value was 12 (14.3) n (%), the “TEAE: Arthralgia” value was 12 (14.3) n (%) and the “TEAE: Back pain” value was 12 (14.3) n (%). For the same compound, the “TEAE: CRS” value was 9 (10.7) n (%), the “TEAE: Chills” value was 20 (23.8) n (%) and the “TEAE: Constipation” value was 14 (16.7) n (%). The “TEAE: Decreased appetite” value was 26 (31.0) n (%), the “TEAE: Dehydration” value was 10 (11.9) n (%) and the “TEAE: Diarrhea” value was 29 (34.5) n (%).
